According to patent publication US11498930B2 (BLUERAY THERAPEUTICS (SHANGHAI) CO., LTD., priority 2018, dated 2022):

Experiments:
SHP2^E76A protein = SHP2^E76A protein (Homo sapiens (Human), UniProt Q06124, E76A); assay: SHP2 enzyme activity inhibition experiment; assay type: biochemical; conditions: SHP2 enzyme activity, Tables 1.1 and 1.2; read-out: IC50
Experimental: Compound powders were dissolved in DMSO to prepare mother liquor.
During the experiment, the stock solutions of the compounds were subjected to 3-fold gradient dilution with DMSO, and 10 different test concentrations of each compound were set. […] The protein used was the activated protein SHP^2E76A with amino acid mutation at position 76 of the protein, and the substrate used was DiFMUP (Invitrogen, E12020). […] 50 µL of enzyme solution was added to the detection wells, followed by 50 µL of substrate. […] GraphPad Prism 5 was used for nonlinear regression analysis, and the curve of enzyme activity versus compound concentration was fitted by the equation Y=Bottom+(Top-Bottom)/(1+10^((Log IC50−X)*HillSlope)) to calculate the IC50 value of each compound.

MOLM-13 cells = assay: MOLM-13 cell proliferation experiment; assay type: cell-based; conditions: Homo sapiens, MOLM-13, 72 h, MOLM-13 cell proliferation, 3 days, Tables 3.1 and 3.2; read-out: IC50
Experimental: After 3 days, 5 µL of CellTiter-Glo reagent (Promega, ZG7572) was added to each well, and the plates were kept at room temperature in the dark for 10 minutes. The […] was detected by Spectra max i3 (Molecular Devices). The relative growth rate of the treated cells was compared with that of DMSO control.

SHP2^E76A protein, sequence (Q06124 whole entry E76A): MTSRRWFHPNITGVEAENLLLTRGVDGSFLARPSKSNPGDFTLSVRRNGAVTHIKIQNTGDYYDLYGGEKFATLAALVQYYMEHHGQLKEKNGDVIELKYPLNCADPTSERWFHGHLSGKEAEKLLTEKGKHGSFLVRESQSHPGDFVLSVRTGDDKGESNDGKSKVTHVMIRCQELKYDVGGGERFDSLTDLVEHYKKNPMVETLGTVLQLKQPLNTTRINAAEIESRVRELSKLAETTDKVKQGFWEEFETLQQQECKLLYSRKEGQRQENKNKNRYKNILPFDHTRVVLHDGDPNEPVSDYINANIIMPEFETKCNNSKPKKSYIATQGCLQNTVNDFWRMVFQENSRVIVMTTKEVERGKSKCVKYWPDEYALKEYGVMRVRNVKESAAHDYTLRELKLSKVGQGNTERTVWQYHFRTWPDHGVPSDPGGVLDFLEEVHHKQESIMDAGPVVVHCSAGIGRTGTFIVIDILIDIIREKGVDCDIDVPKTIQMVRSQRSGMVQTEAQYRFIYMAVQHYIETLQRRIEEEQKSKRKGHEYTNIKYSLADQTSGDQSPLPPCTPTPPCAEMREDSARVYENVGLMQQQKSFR

Row | Compound | IC50 (SHP2^E76A protein) | IC50 (MOLM-13 cells)
1 | N[C@@H]1COCC12CCN(c1ncc(Sc3ccnc(Cl)c3Cl)c3nncn13)CC2 [(S)-8-(8-((2,3-dichloropyridin-4-yl)thio)-[1,2,4]triazolo[4,3-c]pyrimidin-5-yl)-2-oxa-8-azaspiro[4.5]decan-4-amine] | 0.1 to 1 µM | 0.1 to 1 µM
2 | N[C@@H]1CCCC12CCN(c1ncc(Sc3cccnc3Cl)c3ncnn13)CC2 | 0.1 to 1 µM | 1 to 10 µM
3 | N[C@@H]1CCCC12CCN(c1ncc(Sc3cccc4ccccc34)c3nncn13)CC2 [(R)-8-(8-(naphthalen-1-ylthio)-[1,2,4]triazolo[4,3-c]pyrimidin-5-yl)-8-azaspiro[4.5]decan-1-amine] | < 0.1 µM | 0.1 to 1 µM
4 | NCC1(c2ccccc2)CCN(c2ncc(Sc3cccc(Cl)c3Cl)c3nncn23)CC1 [(1-(8-((2,3-dichlorophenyl)thio)-[1,2,4]triazolo[4,3-c]pyrimidin-5-yl)-4-phenylpiperidin-4-yl)methanamine] | < 0.1 µM | 0.1 to 1 µM
5 | Cc1nccc(Sc2cnc(N3CCC4(CC3)CO[C@@H](C)[C@H]4N)n3ncnc23)c1Cl [(3S,4S)-8-(8-((3-chloro-2-methylpyridin-4-yl)thio)-[1,2,4]triazolo[1,5-c]pyrimidin-5-yl)-3-methyl-2-oxa-8-azaspiro[4.5]decan-4-amine] | 0.1 to 1 µM | 1 to 10 µM
6 | C[C@@H]1OCC2(CCN(c3ncc(Sc4cc(N)nc(Cl)c4Cl)c4nncn34)CC2)[C@@H]1N [(3S,4S)-8-(8-((6-amino-2,3-dichloropyridin-4-yl)thio)-[1,2,4]triazolo[4,3-c]pyrimidin-5-yl)-3-methyl-2-oxa-8-azaspiro[4.5]decan-4-amine] | < 0.1 µM | 0.1 to 1 µM
7 | N[C@@H]1COCC12CCN(c1ncc(Sc3cccc(Cl)c3Cl)c3nccn13)CC2 [(S)-8-(8-((2,3-dichlorophenyl)thio)imidazo[1,2-c]pyrimidin-5-yl)-2-oxa-8-azaspiro[4.5]decan-4-amine] | < 0.1 µM | 0.1 to 1 µM
8 | N[C@@H]1CCCC12CCN(c1ncc(Sc3ccccc3)c3nccn13)CC2 [(R)-8-(8-(phenylthio)imidazo[1,2-c]pyrimidin-5-yl)-8-azaspiro[4.5]decan-1-amine] | 0.1 to 1 µM | 0.1 to 1 µM
9 | N[C@@H]1CCCC12CCN(c1ncc(Sc3cccc(NC(=O)c4c(O)nc5n(c4=O)CCCC5)c3Cl)c3nccn13)CC2 [(R)-N-(3-((5-(1-amino-8-azaspiro[4.5]decan-8-yl)imidazo[1,2-c]pyrimidin-8-yl)thio)-2-chlorophenyl)-2-hydroxy-4-oxo-6,7,8,9-tetrahydro-4H-pyrido[1,2-a]pyrimidin-3-carboxamide] | 0.1 to 1 µM | 0.1 to 1 µM
10 | C[C@@H]1OCC2(CCN(c3ncc(Sc4cc(N)ncc4Cl)c4nncn34)CC2)[C@@H]1N | < 0.1 µM | 1 to 10 µM
11 | CC1(CN)CCN(c2ncc(Sc3cccc(Cl)c3Cl)c3nccn23)CC1 [(1-(8-((2,3-dichlorophenyl)thio)imidazo[1,2-c]pyrimidin-5-yl)-4-methylpiperidin-4-yl)methanamine] | < 0.1 µM | 0.1 to 1 µM
12 | CC1C[C@@H](N)C2(CCN(c3ncc(Sc4cc(N)nc(Cl)c4Cl)c4nccn34)CC2)C1 (stereo partly drawn) [(1R)-8-(8-((6-amino-2,3-dichloropyridin-4-yl)thio)imidazo[1,2-c]pyrimidin-5-yl)-3-methyl-8-azaspiro[4.5]decan-1-amine] | < 0.1 µM | < 0.1 µM
13 | N[C@@H]1CCCC12CCN(c1ncc(Sc3ccncc3Cl)c3ncnn13)CC2 [(R)-8-(8-((3-chloropyridin-4-yl)thio)-[1,2,4]triazolo[1,5-c]pyrimidin-5-yl)-8-azaspiro[4.5]decan-1-amine] | 1 to 10 µM | 1 to 10 µM
14 | COC(=O)c1ccccc1Sc1cnc(N2CCC3(CCC[C@H]3N)CC2)n2ccnc12 [Methyl (R)-2-((5-(1-amino-8-azaspiro[4.5]decan-8-yl)imidazo[1,2-c]pyrimidin-8-yl)thio)benzoate] | 0.1 to 1 µM | 0.1 to 1 µM
